Active and inactive are the calls of the source. No cut-off for these calls is given here.
Legend:
Mus musculus [1] = assay: In vivo inhibition of SNX9-p47phox protein-protein interaction in CLP-induced systemic sepsis mouse model at 10 microg/kg, ip; format: functional, organism-based; settings: dose 10.0 µg/kg
[2] = Antiinflammatory activity in […] cells assessed as reduction in LPS-induced NOX release at 10 uM pre incubated for 1 hr followed by LPS stimulation and measured after 30 mins by ELISA; format: functional
THP-1 [3] = assay: Antiinflammatory activity in LPS-induced human THP-1 cells assessed as reduction in TNF-alpha production preincubated for 1 hr followed by LPS stimulation and measured after 30 mins by ELISA; format: functional, cell-based; settings: dose 1-10000 nM
Mus musculus [4] = assay: Protection against CLP-induced systemic sepsis SNX9+/+ mouse model assessed as reduction in serum TNF-alpha at 10 microg/kg, ip; format: functional, organism-based; settings: dose 10.0 µg/kg
[5] = Cmax in C57BL/6 mouse at 1 mg/kg, ip incubation up to 6 hrs by LC-MS/MS analysis; format: ADME, organism-based; design: route intraperitoneal, dose 1 mg/kg, time <=6; settings: in vivo
Staphylococcus aureus = assay: Antibacterial activity against Staphylococcus aureus ATCC 6538 assessed as bacterial clearance incubated for 6 to 24 hrs by microbroth dilution method; format: functional; settings: time 6-24 hrs
Mus musculus [6] = assay: Protection against CLP-induced systemic sepsis SNX9+/+ mouse model assessed as reduction in serum IL-1beta at 10 microg/kg, ip; format: functional, organism-based; settings: dose 10.0 µg/kg
Mus musculus [7] = assay: Protection against CLP-induced systemic sepsis SNX9-/- mouse model assessed as effect on mouse survival at 100 to 1000 microg/kg, ip; format: functional, organism-based; settings: dose 100-1000 µg/kg
Escherichia coli = assay: Antibacterial activity against Escherichia coli ATCC 12701 assessed as bacterial clearance incubated for 6 to 24 hrs by microbroth dilution method; format: functional; settings: time 6-24 hrs
Mus musculus [8] = assay: Protection against CLP-induced systemic sepsis SNX9+/+ mouse model assessed as reduction in liver damage at 10 microg/kg, ip by H and E staining based analysis; format: functional, organism-based; settings: dose 10.0 µg/kg
Mus musculus [9] = assay: Protection against CLP-induced systemic sepsis SNX9+/+ mouse model assessed as reduction in serum IL-18 at 10 microg/kg, ip; format: functional, organism-based; settings: dose 10.0 µg/kg
Mus musculus [10] = assay: Protection against CLP-induced systemic sepsis SNX9+/+ mouse model assessed as mortality at 100 to 1000 microg/kg, ip; format: functional; settings: dose 100-1000 µg/kg; at 100 to 1000 µg/kg
[11] = Antiinflammatory activity in […] cells assessed as reduction in LPS-induced TNF-alpha release at 10 uM pre incubated for 1 hr followed by LPS stimulation and measured after 30 mins by ELISA; format: functional
[12] = Antiinflammatory activity in […] cells assessed as reduction in LPS-induced IL-6 release at 10 uM pre incubated for 1 hr followed by LPS stimulation and measured after 30 mins by ELISA; format: functional
Mus musculus [13] = assay: Protection against CLP-induced systemic sepsis SNX9+/+ mouse model assessed as reduction in spleen damage at 10 microg/kg, ip by H and E staining based analysis; format: functional, organism-based; settings: dose 10.0 µg/kg
[14] = AUC (0 to last) in C57BL/6 mouse at 1 mg/kg, ip incubation up to 6 hrs by LC-MS/MS analysis; format: ADME, organism-based; design: route intraperitoneal, dose 1 mg/kg, time <=6; settings: in vivo
BMDM [15] = assay: Inhibition of SNX9- p47phox protein-protein interaction in LPS-induced early endosome of mouse BMDM cells at 10 uM preincubated for 1 hrs followed by LPS stimulation for 30 mins; format: cell-based
Mus musculus [16] = assay: Protection against CLP-induced systemic sepsis SNX9+/+ mouse model assessed as reduction in serum IL-6 at 10 microg/kg, ip; format: functional, organism-based; settings: dose 10.0 µg/kg
Mus musculus [17] = assay: Protection against CLP-induced ip dosed systemic sepsis SNX9+/+ mouse model; format: functional, organism-based; settings: dose 1.0 µg/kg
[18] = Stability in human liver microsomes assessed as parent compound remaining at 10 uM preincubated for 5 mins followed by NADPH addition measured after 30 mins by LC-MS/MS analysis relative to control; format: ADME, Microsome; settings: time 35 min, read-out: Stability
[19] = Stability in human plasma assessed as parent compound remaining at 10 uM incubation upto 120 mins by LC-MS/MS analysis relative to control; format: ADME, cell-free; settings: read-out: Stability
[20] = Tmax in C57BL/6 mouse at 1 mg/kg, ip incubation up to 6 hrs by LC-MS/MS analysis; format: ADME, organism-based; settings: in vivo
Mus musculus [21] = assay: In vivo inhibition of SNX9-p47phox protein-protein interaction in CLP-induced systemic sepsis mouse model assessed as reduction ROS in splenocytes at 10 microg/kg, ip; format: functional, organism-based; settings: dose 10.0 µg/kg
Mus musculus [22] = assay: Protection against CLP-induced systemic sepsis SNX9+/+ mouse model assessed as reduction in lung damage at 10 microg/kg, ip by H and E staining based analysis; format: functional, organism-based; settings: dose 10.0 µg/kg
THP-1 [23] = assay: Effect on SNX9 expression in human THP-1 cells at 1 to 5000 nM measured after 24 to 48 hrs; format: functional, cell-based; settings: dose 1-5000 nM, time 24-48 hrs
BMDM [24] = assay: Inhibition of SNX9- p47phox protein-protein interaction in mouse BMDM at 10 uM preincubated for 1 hrs followed by LPS stimulation for 30 mins; format: cell-based; settings: time 1.5 hrs
Mus musculus [25] = assay: Protection against CLP-induced systemic sepsis SNX9+/+ mouse model assessed as reduction in infiltration of immune cells at 10 microg/kg, ip by H & E staining based analysis; format: functional, organism-based; settings: dose 10.0 µg/kg
BMDM [26] = assay: Effect on SNX9 expression in mouse BMDM cells at 1 to 5000 nM measured after 24 to 48 hrs; format: functional, cell-based; settings: dose 1-5000 nM, time 24-48 hrs
[27] = Drug uptake in CLP-induced systemic sepsis mouse model in liver macrophages at 10 microg/kg, ip; format: ADME, tissue-based; settings: in vivo, 0.01 mg/kg, dose 10 µg/kg
Pseudomonas aeruginosa = assay: Antibacterial activity against Pseudomonas aeruginosa ATCC 10145 assessed as bacterial clearance incubated for 6 to 24 hrs by microbroth dilution method; format: functional; settings: time 6-24 hrs
[28] = Drug uptake in CLP-induced systemic sepsis mouse model in lung macrophages at 10 microg/kg, ip; format: ADME, tissue-based; settings: in vivo, 0.01 mg/kg, dose 10 µg/kg
THP-1 [29] = assay: Inhibition of SNX9- p47phox protein-protein interaction in LPS-induced early endosome of human THP-1cells at 10 uM preincubated for 1 hrs followed by LPS stimulation for 30 mins; format: cell-based
[30] = Half life in C57BL/6 mouse at 1 mg/kg, ip incubation up to 6 hrs by LC-MS/MS analysis; format: ADME, organism-based; settings: in vivo
Mus musculus [31] = assay: Protection against CLP-induced systemic sepsis SNX9+/+ mouse model assessed as reduction in serum IL-12p40 at 10 microg/kg, ip; format: functional, organism-based; settings: dose 10.0 µg/kg
Mus musculus [32] = assay: Protection against CLP-induced systemic sepsis SNX9+/+ mouse model assessed as reduction in serum IL-10 at 10 microg/kg, ip; format: functional, organism-based; settings: dose 10.0 µg/kg
THP-1 [33] = assay: Inhibition of SNX9- p47phox protein-protein interaction in human THP-1 at 10 uM preincubated for 1 hrs followed by LPS stimulation for 30 mins; format: cell-based
BMDM [34] = assay: Antiinflammatory activity in LPS-induced […] cells assessed as reduction in TNF-alpha production preincubated for 1 hr followed by LPS stimulation and measured after 30 mins by ELISA; format: functional, cell-based; settings: dose 1-10000 nM

CC(C)(C)c1ccc(-c2nc(NCCOCCOCCN)nc(NCC3CCCO3)n2)cc1.Cl (centres undefined)
inhibition (Mus musculus [1]): Active
inhibition at 10 µM [2]: 57%
Activity (THP-1 [3]): Dose-Dependent Effect
Activity (Mus musculus [4]): Active
Cmax [5]: 136 ng/mL
MIC80 (Staphylococcus aureus): 4 µg/mL
Activity (Mus musculus [6]): Active
Activity (Mus musculus [7]): inactive
MIC80 (Escherichia coli): 1.98 µg/mL
Activity (Mus musculus [8]): Active
Activity (Mus musculus [9]): Active
Activity (Mus musculus [10]): 70%
inhibition at 10 µM [11]: 60.8%
inhibition at 10 µM [12]: 66.7%
Activity (Mus musculus [13]): Active
AUC(0-t) at 6 h [14]: 209 ng·h/mL
inhibition (BMDM [15]): Active
Activity (Mus musculus [16]): Active
Activity (Mus musculus [17]): Dose-Dependent Effect
remaining at 0.5 h, 10 µM [18]: > 100%
remaining at 2 h, 10 µM [19]: 93%
Tmax [20]: 10.2 min
inhibition (Mus musculus [21]): Active
Activity (Mus musculus [22]): Active
Activity (THP-1 [23]): inactive
inhibition (BMDM [24]): Active
Activity (Mus musculus [25]): Active
Activity (BMDM [26]): inactive
Drug uptake [27]: Active
MIC80 (Pseudomonas aeruginosa): 1.98 µg/mL
Drug uptake [28]: Active
inhibition (THP-1 [29]): Active
half-life [30]: 63.6 min
Activity (Mus musculus [31]): Active
Activity (Mus musculus [32]): Active
inhibition (THP-1 [33]): Active
Activity (BMDM [34]): Dose-Dependent Effect

CC(C)(C)c1ccc(-c2nc(NCCOCCOCCN)nc(NCc3cccc(Cl)c3)n2)cc1
inhibition at 10 µM [2]: 41.5%
inhibition at 10 µM [11]: 50.1%
inhibition at 10 µM [12]: 43.3%

CC(C)(C)c1ccc(-c2nc(NCCOCCOCCN)nc(NCc3ccccc3)n2)cc1
inhibition at 10 µM [2]: 38.5%
inhibition at 10 µM [11]: 10.7%
inhibition at 10 µM [12]: 50%

CC(C)(C)c1ccc(-c2nc(NCCOCCOCCN)nc(NCCc3ccccc3)n2)cc1
inhibition at 10 µM [2]: 23%
inhibition at 10 µM [11]: 25.3%
inhibition at 10 µM [12]: 40.2%

CC(C)(C)c1ccc(-c2nc(NCCOCCOCCN)nc(Nc3ccc(Cl)cc3)n2)cc1
inhibition at 10 µM [2]: 34.2%
inhibition at 10 µM [11]: 33.7%
inhibition at 10 µM [12]: 32.5%

CC(C)(C)c1ccc(-c2nc(NCCOCCN)nc(NCC3CCCO3)n2)cc1 (centres undefined)
inhibition at 10 µM [2]: 33.1%
inhibition at 10 µM [11]: 13.3%
inhibition at 10 µM [12]: 22.1%

COc1ccc(-c2nc(NCCOCCOCCN)nc(NCC3CCCO3)n2)cc1 (centres undefined)
inhibition at 10 µM [2]: 38.4%
inhibition at 10 µM [11]: 10.1%
inhibition at 10 µM [12]: 50.1%

GENTAMICIN
MIC=>80 (Staphylococcus aureus): 0.5 µg/mL
MIC=>80 (Escherichia coli): 0.99 µg/mL
MIC=>80 (Pseudomonas aeruginosa): 7.94 µg/mL

Cc1ccc(-c2nc(NCCOCCOCCN)nc(NCC3CCCO3)n2)cc1 (centres undefined)
inhibition at 10 µM [2]: 40%
inhibition at 10 µM [11]: 50.1%
inhibition at 10 µM [12]: 50%

CC(C)(C)c1ccc(Nc2nc(NCCOCCOCCN)nc(-c3ccc(C(C)(C)C)cc3)n2)cc1
inhibition at 10 µM [2]: 29.2%
inhibition at 10 µM [11]: 23.2%
inhibition at 10 µM [12]: 32.8%

NCCOCCOCCNc1nc(NCC2CCCO2)nc(-c2ccc(OC(F)(F)F)cc2)n1 (centres undefined)
inhibition at 10 µM [2]: 38.4%
inhibition at 10 µM [11]: 10.9%
inhibition at 10 µM [12]: 16.7%

CC(C)(C)c1ccc(-c2nc(NCCOCCOCCOCCN)nc(NCC3CCCO3)n2)cc1 (centres undefined)
inhibition at 10 µM [2]: 19.5%
inhibition at 10 µM [11]: 13.4%
inhibition at 10 µM [12]: 22.2%

C=CCNc1nc(NCCOCCOCCN)nc(-c2ccc(C(C)(C)C)cc2)n1
inhibition at 10 µM [2]: 29.2%
inhibition at 10 µM [11]: 23.4%
inhibition at 10 µM [12]: 32.6%

CC(C)(C)c1ccc(-c2nc(NCCCOCCOCCCN)nc(NCC3CCCO3)n2)cc1 (centres undefined)
inhibition at 10 µM [2]: 19.1%
inhibition at 10 µM [11]: 13.8%
inhibition at 10 µM [12]: 22.3%

CC(C)(C)c1ccc(CNc2nc(NCCOCCOCCN)nc(-c3ccc(C(C)(C)C)cc3)n2)cc1
inhibition at 10 µM [2]: 38.4%
inhibition at 10 µM [11]: 55.2%
inhibition at 10 µM [12]: 46.7%

Reference: ChEMBL document CHEMBL5038645, “Discovery of Mycobacterium tuberculosis Rv3364c-Derived Small Molecules as Potential Therapeutic Agents to Target SNX9 for Sepsis” (J Med Chem, 2022)
